Legend:
Format in all cases: biochemical
[1] = biological target: T1, Full length PKA (Homo sapiens, UniProt P17612); experiment: PKA in vitro enzymatic assay (HTRF); conditions: 0.035 nM enzyme solution, substrate solution with 5 mM ATP, 25° C. 1 hr
T1 construct: Full length PKA (cat #P2912); purchased Invitrogen P2912
Description: Full length PKA (cat #P2912), peptide substrate, fluorescein CREBtide peptide (cat #PV3508), Tb-Crebtide p-S133 Ab (cat #PV3566), and Lanthascreen TR-FRET Dilution Buffer stored (part # PV3574) were purchased from Invitrogen. In general, assay buffer conditions were chosen based on obtaining optimal and linear enzymatic activities. The assay buffer contains 50 mM HEPES, 10 mM MgCl2, 5 mM DTT, 0.005% Tween20 at pH 7.8. Compound stock (0.001 mM) was prepared in DMSO. The compound plate was prepared by 3-fold and 11-point serial dilutions. 0.5 μL of the compound in DMSO was transferred from the compound plate to the assay plate. 0.035 nM enzyme solution was prepared in the assay buffer. Note that the enzyme concentration given is based on the given stock concentration reported by the vendor. 0.1 μM substrate solution was prepared in the assay buffer with addition of 5 mM ATP. 10 μL of the enzyme solution was added to the assay plate and then 10 μL of substrate solution was added to the assay plate. The plate was protected from light and the reaction was incubated at 25° C. for 1 hr. The reaction was stopped by adding 10 μL of a solution containing 30 mM EDTA, and 1.5 nM Tb-Crebtide p-S133 Ab in 1× detection buffer. The plate was incubated for 15-30 min at room temperature and HTRF (homogenous time resolved fluorescence) was measured on a plate reader. Percentage of inhibition was calculated for each concentration and IC50 value was generated from curve fitting. See Table 8 for data related to compounds of the examples.

[2] = biological target: T2, Full length Akt3 (Homo sapiens, UniProt Q9Y243); experiment: In vitro Akt kinase enzymatic assay (HTRF), Akt3; conditions: 0.6 nM Akt3, substrate solution with 5 mM ATP, 25° C. 1 hr
T2 construct: Full length Akt1 (cat #P2999), Akt2 (cat #PV3184), Akt3 (cat #PV3185); purchased PerkinElmer PV3185
Description: (§1) Compounds herein were tested for inhibitory activity of Akt targets according to the following in vitro assay. Full length Akt1 (cat #P2999), Akt2 (cat #PV3184), Akt3 (cat #PV3185), peptide substrate, Ulight-Crosstide (cat #TRF0106-M), Ultra-Europium anti-phospho-Crosstide (cat #TRF-0202-M), and 10×LANCE detection buffer (cat #CR97-100) were purchased from PerkinElmer. In general, assay buffer conditions were chosen based on obtaining optimal enzymatic and linear activities. The assay buffer contains 50 mM HEPES, 10 mM MgCl2, 5 mM DTT, 0.005% Tween20 at pH 7.8. Compound stock (0.001 mM) was prepared in DMSO. The compound plate was prepared by 3-fold and 11-point serial dilutions. 0.5 μL of the compound in DMSO was transferred from the compound plate to the assay plate. Enzyme solution (0.4 nM of Akt1, 0.6 nM of Akt2 or 0.6 nM of Akt3) was prepared in the assay buffer. Note that the enzyme concentration given is based on the given stock concentration reported by the vendor. 0.1 μM substrate solution was prepared in the assay buffer with addition of 5 mM ATP. 10 μL of the enzyme solution was added to the assay plate and then 10 μL of substrate solution was added to the assay plate. The plate was protected from light and the reaction was incubated at 25° C. for 1 hr. The reaction was stopped by adding 10 μL of a solution containing 30 mM EDTA, and 3 nM Ultra Europium anti-phospho Crosstide in 1× detection buffer. The plate was incubated for 15-30 min at room temperature and HTRF (homogenous time resolved fluorescence) was measured on a plate reader. Percentage of inhibition was calculated for each concentration and IC50 value was generated from curve fitting. See Table 8 for data related to compounds of the examples.

[3] = biological target: T3, Full length Akt1 (Homo sapiens, UniProt P31749); experiment: In vitro Akt kinase enzymatic assay (HTRF), Akt1; conditions: 0.4 nM Akt1, substrate solution with 5 mM ATP, 25° C. 1 hr
T3 construct: Full length Akt1 (cat #P2999); purchased PerkinElmer P2999
Description: as §1

[4] = biological target: T4, Full length Akt2 (Homo sapiens, UniProt P31751); experiment: In vitro Akt kinase enzymatic assay (HTRF), Akt2; conditions: 0.6 nM Akt2, substrate solution with 5 mM ATP, 25° C. 1 hr
T4 construct: Full length Akt1 (cat #P2999), Akt2 (cat #PV3184); purchased PerkinElmer PV3184
Description: as §1

T4 sequence (P31751 whole entry): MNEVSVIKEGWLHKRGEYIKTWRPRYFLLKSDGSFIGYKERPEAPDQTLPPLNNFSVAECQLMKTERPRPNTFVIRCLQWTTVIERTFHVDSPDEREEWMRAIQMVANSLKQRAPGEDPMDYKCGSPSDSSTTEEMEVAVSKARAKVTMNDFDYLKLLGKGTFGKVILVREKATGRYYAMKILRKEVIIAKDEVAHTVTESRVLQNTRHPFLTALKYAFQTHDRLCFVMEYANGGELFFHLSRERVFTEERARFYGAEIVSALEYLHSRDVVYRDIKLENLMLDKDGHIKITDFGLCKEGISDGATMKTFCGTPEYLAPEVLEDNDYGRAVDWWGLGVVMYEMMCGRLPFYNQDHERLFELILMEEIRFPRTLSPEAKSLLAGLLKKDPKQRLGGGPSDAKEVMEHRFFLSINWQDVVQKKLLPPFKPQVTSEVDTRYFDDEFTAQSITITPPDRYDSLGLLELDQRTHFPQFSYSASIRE
T3 sequence (P31749 whole entry): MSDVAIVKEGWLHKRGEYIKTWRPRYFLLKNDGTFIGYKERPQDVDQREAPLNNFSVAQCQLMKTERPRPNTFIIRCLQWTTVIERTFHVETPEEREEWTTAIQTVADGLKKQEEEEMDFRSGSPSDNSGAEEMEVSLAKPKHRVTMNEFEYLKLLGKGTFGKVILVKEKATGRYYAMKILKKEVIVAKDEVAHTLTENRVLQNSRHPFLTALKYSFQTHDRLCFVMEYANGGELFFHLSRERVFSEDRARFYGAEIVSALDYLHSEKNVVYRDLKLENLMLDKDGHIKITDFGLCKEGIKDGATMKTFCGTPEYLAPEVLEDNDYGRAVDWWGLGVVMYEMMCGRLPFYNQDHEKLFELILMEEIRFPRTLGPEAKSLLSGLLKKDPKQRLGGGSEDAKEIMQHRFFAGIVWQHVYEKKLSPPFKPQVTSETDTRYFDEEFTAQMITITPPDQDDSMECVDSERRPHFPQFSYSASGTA
T2 sequence (Q9Y243 whole entry): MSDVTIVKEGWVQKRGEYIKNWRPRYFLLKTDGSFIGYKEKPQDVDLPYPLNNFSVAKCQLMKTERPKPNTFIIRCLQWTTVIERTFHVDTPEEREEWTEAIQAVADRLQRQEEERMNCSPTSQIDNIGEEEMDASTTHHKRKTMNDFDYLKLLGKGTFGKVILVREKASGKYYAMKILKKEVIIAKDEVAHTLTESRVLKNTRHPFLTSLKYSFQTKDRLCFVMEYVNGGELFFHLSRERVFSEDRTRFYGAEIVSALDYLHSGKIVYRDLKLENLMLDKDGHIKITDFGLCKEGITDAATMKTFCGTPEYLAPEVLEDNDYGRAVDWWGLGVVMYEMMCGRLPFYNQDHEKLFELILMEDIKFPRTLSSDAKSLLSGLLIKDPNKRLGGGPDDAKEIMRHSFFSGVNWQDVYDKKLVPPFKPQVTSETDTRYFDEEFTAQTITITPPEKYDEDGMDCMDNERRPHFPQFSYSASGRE

Row | IC50 [1] [µM] | IC50 [2] [µM] | IC50 [3] [µM] | IC50 [4] [µM] | Compound
1 | > 5 | 0.5 to 5 | < 0.5 | 0.5 to 5 | Cn1ncc(Cl)c1-c1ccc2c(c1)CN([C@H](CNC1CC1)Cc1cccc(F)c1)C2=O [Example 33, 5-(4-chloro-1-methyl-1H-pyrazol-5-yl)-2-[(1S)-2-(cyclopropylamino)-1-(3-fluorobenzyl)ethyl]isoindolin-1-one]
2 | > 5 | 0.5 to 5 | < 0.5 | 0.5 to 5 | Cn1ncc(Cl)c1-c1ccc2c(c1)CN([C@H](CNC1CCC1)Cc1cccc(F)c1)C2=O [Example 34, 5-(4-chloro-1-methyl-1H-pyrazol-5-yl)-2-[(1S)-2-(cyclobutylamino)-1-(3-fluorobenzyl)ethyl]isoindolin-1-one]
3 | > 5 | 0.5 to 5 | < 0.5 | 0.5 to 5 | Cn1ncc(Cl)c1-c1ccc2c(c1)CN([C@H](CNC1CCCC1)Cc1cccc(F)c1)C2=O [Example 35, 5-(4-chloro-1-methyl-1H-pyrazol-5-yl)-2-[(1S)-2-(cyclopentylamino)-1-(3-fluorobenzyl)ethyl]isoindolin-1-one]
4 | > 5 | > 5 | 0.5 to 5 | 0.5 to 5 | Cn1ncc(Cl)c1-c1ccc2c(c1)CN([C@H](CNC1CCOCC1)Cc1cccc(F)c1)C2=O [Example 36, 5-(4-chloro-1-methyl-1H-pyrazol-5-yl)-2-[(1S)-1-(3-fluorobenzyl)-2-(tetrahydro-2H-pyran-4-ylamino)ethyl]isoindolin-1-one]
5 | > 5 | 0.5 to 5 | < 0.5 | 0.5 to 5 | CN1CCC(NC[C@H](Cc2cccc(F)c2)N2Cc3cc(-c4c(Cl)cnn4C)ccc3C2=O)CC1 [Example 37, 5-(4-chloro-1-methyl-1H-pyrazol-5-yl)-2-{(1S)-1-(3-fluorobenzyl)-2-[(1-methylpiperidin-4-yl)amino]ethyl}isoindolin-1-one]
6 | > 5 | > 5 | 0.5 to 5 | > 5 | CN(C)C[C@H](Cc1cccc(F)c1)N1Cc2cc(-c3c(Cl)cnn3C)ccc2C1=O [Example 38, 5-(4-chloro-1-methyl-1H-pyrazol-5-yl)-2-[(1S)-2-(dimethylamino)-1-(3-fluorobenzyl)ethyl]isoindolin-1-one]
7 | > 5 | 0.5 to 5 | < 0.5 | > 5 | CCN(CC)C[C@H](Cc1cccc(F)c1)N1Cc2cc(-c3c(Cl)cnn3C)ccc2C1=O [Example 39, 5-(4-chloro-1-methyl-1H-pyrazol-5-yl)-2-[(1S)-2-(diethylamino)-1-(3-fluorobenzyl)ethyl]isoindolin-1-one]
8 | > 5 | 0.5 to 5 | < 0.5 | 0.5 to 5 | CSCc1cnn(C)c1-c1ccc2c(c1)CN([C@H](CN)Cc1ccccc1)C2=O [Example 59, 2-[(1S)-2-amino-1-benzyl-ethyl]-5-[4-(methylthiomethyl)-1-methyl-1H-pyrazol-5-yl]isoindolin-1-one]
9 | > 5 | 0.5 to 5 | < 0.5 | 0.5 to 5 | Cn1ncc(Cl)c1-c1ccc2c(c1)CN([C@H](CN)Cc1ccc(C#N)cc1)C2=O [Example 63, 4-{(2S)-3-amino-2-[5-(4-chloro-1-methyl-1H-pyrazol-5-yl)-1-oxo-1,3-dihydro-2H-isoindol-2-yl]propyl}benzonitrile]
10 | > 5 | > 5 | 0.5 to 5 | > 5 | COc1cc(C[C@@H](CN)N2Cc3cc(-c4c(Cl)cnn4C)ccc3C2=O)ccn1 [Example 64, 2-{(1S)-2-amino-1-[(2-methoxypyridin-4-yl)methyl]ethyl}-5-(4-chloro-1-methyl-1H-pyrazol-5-yl)isoindolin-1-one]
11 | > 5 | 0.5 to 5 | < 0.5 | > 5 | Cn1cc(-c2cccc(C[C@@H](CN)N3Cc4cc(-c5c(Cl)cnn5C)ccc4C3=O)c2)cn1 [Example 70, 2-{(1S)-2-amino-1-[3-(1-methyl-1H-pyrazol-4-yl)benzyl]ethyl}-5-(4-chloro-1-methyl-1H-pyrazol-5-yl)isoindolin-1-one]
12 | > 5 | 0.5 to 5 | < 0.5 | 0.5 to 5 | Cn1ncc(Cl)c1-c1ccc2c(c1)CN([C@H](CN)Cc1cccc(-c3ccsc3)c1)C2=O [Example 71, 2-{(1S)-2-amino-1-[3-(3-thienyl)benzyl]ethyl}-5-(4-chloro-1-methyl-1H-pyrazol-5-yl)isoindolin-1-one]
13 | > 5 | > 5 | 0.5 to 5 | > 5 | COc1cc(C[C@@H](CN)N2Cc3cc(-c4ccnn4C)ccc3C2=O)ccn1 [Example 77, 2-{(1S)-2-amino-1-[(2-methoxypyridin-4-yl)methyl]ethyl}-5-(1-methyl-1H-pyrazol-5-yl)isoindolin-1-one]
14 | > 5 | 0.5 to 5 | < 0.5 | 0.5 to 5 | Cn1nccc1-c1ccc2c(c1)CN([C@H](CN)Cc1cscn1)C2=O [Example 82, 2-[(1S)-2-amino-1-(1,3-thiazol-4-ylmethyl)ethyl]-5-(1-methyl-1H-pyrazol-5-yl)isoindolin-1-one]
15 | > 5 | > 5 | 0.5 to 5 | 0.5 to 5 | Cn1cc(-c2cccc(C[C@@H](CN)N3Cc4cc(-c5ccnn5C)ccc4C3=O)c2)cn1 [Example 83, 2-{(1S)-2-amino-1-[3-(1-methyl-1H-pyrazol-4-yl)benzyl]ethyl}-5-(1-methyl-1H-pyrazol-5-yl)isoindolin-1-one]
16 | > 5 | 0.5 to 5 | < 0.5 | 0.5 to 5 | Cn1nccc1-c1ccc2c(c1)CN([C@H](CN)Cc1cccc(-c3ccsc3)c1)C2=O [Example 84, 2-{(1S)-2-amino-1-[3-(3-thienyl)benzyl]ethyl}-5-(1-methyl-1H-pyrazol-5-yl)isoindolin-1-one]
17 | > 5 | < 0.5 | < 0.5 | < 0.5 | CCCOCc1cnn(C)c1-c1cc2c(cn1)C(=O)N([C@H](CN)Cc1cccc(F)c1)C2 [Example 96, 2-[(1S)-2-amino-1-(3-fluorobenzyl)ethyl]-6-[4-(1-propoxymethyl)-1-methyl-1H-pyrazol-5-yl]-1,2-dihydro-3H-pyrrolo[3,4-c]pyridin-3-one]
18 | > 5 | 0.5 to 5 | 0.5 to 5 | > 5 | CCSCc1cnn(C)c1-c1cc2c(cn1)C(=O)N([C@H](CN)Cc1cccc(F)c1)C2 [Example 98, 2-[(1S)-2-amino-1-(3-fluorobenzyl)ethyl]-6-[4-(ethylthiomethyl)-1-methyl-1H-pyrazol-5-yl]-1,2-dihydro-3H-pyrrolo[3,4-c]pyridin-3-one]
19 | > 5 | 0.5 to 5 | < 0.5 | 0.5 to 5 | CSCc1cnn(C)c1-c1cc2c(cn1)C(=O)N([C@H](CN)Cc1cccc(F)c1)C2 [Example 99, 2-[(1S)-2-amino-1-(3-fluorobenzyl)ethyl]-6-[4-(methylthiomethyl)-1-methyl-1H-pyrazol-5-yl]-1,2-dihydro-3H-pyrrolo[3,4-c]pyridin-3-one]
